pIC50: −log10 of the molar value.
Test system: 857933-349-R-J2-PDC complex spheroids, viability
Assay: Anticancer human tumor 857933-349-R-J2-PDC patient-derived colon adenocarcinoma cell line growth inhibition [GQUAD]
Settings: for pIC50: curve of first compound; for viability, T/C: stronger effect = lower value
Procedure, shortened: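 Tumor cells were grown as complex spheroids with HUVEC endothelial cells and mesenchymal stem cells as stroma. G-quadruplex stabilizers were combined with targeted agents over half-log dilutions from near the clinical Cmax, or from 10 microM.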

[1] = second compound 0.0316 µM, first compound 0.0316 µM
[2] = second compound 0.0316 µM, first compound 0.1 µM
[3] = second compound 0.0316 µM, first compound 0.316 µM
[4] = second compound 0.0316 µM, first compound 1 µM
[5] = second compound 0.0316 µM, first compound 3.16 µM
[6] = second compound 0.0316 µM, first compound 10 µM
[7] = second compound 0.1 µM, first compound 0.0316 µM
[8] = second compound 0.1 µM, first compound 0.1 µM
[9] = second compound 0.1 µM, first compound 0.316 µM
[10] = second compound 0.1 µM, first compound 1 µM
[11] = second compound 0.1 µM, first compound 3.16 µM
[12] = second compound 0.1 µM, first compound 10 µM
[13] = second compound 0.316 µM, first compound 0.0316 µM
[14] = second compound 0.316 µM, first compound 0.1 µM
[15] = second compound 0.316 µM, first compound 0.316 µM
[16] = second compound 0.316 µM, first compound 1 µM
[17] = second compound 0.316 µM, first compound 3.16 µM
[18] = second compound 0.316 µM, first compound 10 µM
[19] = second compound 1 µM, first compound 0.0316 µM
[20] = second compound 1 µM, first compound 0.1 µM
[21] = second compound 1 µM, first compound 0.316 µM
[22] = second compound 1 µM, first compound 1 µM
[23] = second compound 1 µM, first compound 3.16 µM
[24] = second compound 1 µM, first compound 10 µM
[25] = second compound 3.16 µM, first compound 0.0316 µM
[26] = second compound 3.16 µM, first compound 0.1 µM
[27] = second compound 3.16 µM, first compound 0.316 µM
[28] = second compound 3.16 µM, first compound 1 µM
[29] = second compound 3.16 µM, first compound 3.16 µM
[30] = second compound 3.16 µM, first compound 10 µM
[31] = second compound 10 µM, first compound 0.0316 µM
[32] = second compound 10 µM, first compound 0.1 µM
[33] = second compound 10 µM, first compound 0.316 µM
[34] = second compound 10 µM, first compound 1 µM
[35] = second compound 10 µM, first compound 3.16 µM
[36] = second compound 10 µM, first compound 10 µM
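Note: spheroids exposed to compounds for one week before readout.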
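Throughout, for viability, T/C: percent viability relative to vehicle DMSO wells taken as 100%.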

SMILES: CC1COCCN1c1cc(C2(O)CC3CCC(C2)O3)c2cnn(-c3ccn[nH]3)c2n1 (stereo not drawn) + Cc1cnc(CNC(=O)c2c(=O)c3ccc(N4CCCN(C)CC4)nc3n3c2sc2ccccc23)cn1
- pIC50 (second compound 0.0316 µM): > 7.50
- pIC50 (second compound 0.1 µM): > 7.50
- pIC50 (second compound 0.316 µM): > 7.50
- pIC50 (second compound 1 µM): > 7.50
- pIC50 (second compound 3.16 µM): > 7.50
- pIC50 (second compound 10 µM): > 7.50
- viability, T/C [1]: 49.9%
- viability, T/C [2]: 38.6%
- viability, T/C [3]: 36.8%
- viability, T/C [4]: 32.6%
- viability, T/C [5]: 35.3%
- viability, T/C [6]: 32%
- viability, T/C [7]: 33%
- viability, T/C [8]: 30.3%
- viability, T/C [9]: 21.1%
- viability, T/C [10]: 28%
- viability, T/C [11]: 31.8%
- viability, T/C [12]: 34%
- viability, T/C [13]: 8.32%
- viability, T/C [14]: 5.49%
- viability, T/C [15]: 5.41%
- viability, T/C [16]: 4.77%
- viability, T/C [17]: 9.73%
- viability, T/C [18]: 13.8%
- viability, T/C [19]: 2.88%
- viability, T/C [20]: 2.12%
- viability, T/C [21]: 2.17%
- viability, T/C [22]: 2.14%
- viability, T/C [23]: 4.27%
- viability, T/C [24]: 1.54%
- viability, T/C [25]: 1.85%
- viability, T/C [26]: 1.84%
- viability, T/C [27]: 1.55%
- viability, T/C [28]: 1.35%
- viability, T/C [29]: 1.5%
- viability, T/C [30]: 0.57%
- viability, T/C [31]: 0.52%
- viability, T/C [32]: 0.38%
- viability, T/C [33]: 0.33%
- viability, T/C [34]: 0.38%
- viability, T/C [35]: 0.85%
- viability, T/C [36]: 0.32%

SMILES: C=CCn1c(=O)c2cnc(Nc3ccc(N4CCN(C)CC4)cc3)nc2n1-c1cccc(C(C)(C)O)n1 + CN(C)c1ccc(Nc2c3ccc(NC(=O)CCN4CCCC4)cc3nc3cc(NC(=O)CCN4CCCC4)ccc23)cc1
- pIC50 (second compound 0.0316 µM): 5.74
- pIC50 (second compound 0.1 µM): 5.78
- pIC50 (second compound 0.316 µM): 5.82
- pIC50 (second compound 1 µM): 5.80
- pIC50 (second compound 3.16 µM): 5.92
- pIC50 (second compound 10 µM): 6.12
- viability, T/C [1]: 102%
- viability, T/C [2]: 102%
- viability, T/C [3]: 96.6%
- viability, T/C [4]: 75.7%
- viability, T/C [5]: 26.1%
- viability, T/C [6]: 27.9%
- viability, T/C [7]: 101%
- viability, T/C [8]: 99.4%
- viability, T/C [9]: 99.2%
- viability, T/C [10]: 68.6%
- viability, T/C [11]: 24.3%
- viability, T/C [12]: 27.3%
- viability, T/C [13]: 97.7%
- viability, T/C [14]: 95.3%
- viability, T/C [15]: 101%
- viability, T/C [16]: 63.1%
- viability, T/C [17]: 28.4%
- viability, T/C [18]: 24.9%
- viability, T/C [19]: 94.3%
- viability, T/C [20]: 81.6%
- viability, T/C [21]: 87.8%
- viability, T/C [22]: 60.8%
- viability, T/C [23]: 32.5%
- viability, T/C [24]: 33.8%
- viability, T/C [25]: 88%
- viability, T/C [26]: 73.5%
- viability, T/C [27]: 75.5%
- viability, T/C [28]: 53.5%
- viability, T/C [29]: 31.8%
- viability, T/C [30]: 28.6%
- viability, T/C [31]: 62.1%
- viability, T/C [32]: 62.6%
- viability, T/C [33]: 57.6%
- viability, T/C [34]: 47.7%
- viability, T/C [35]: 32.2%
- viability, T/C [36]: 25.2%

SMILES: O=C(NO)c1cnc(N2CCN(S(=O)(=O)c3ccc4ccccc4c3)CC2)nc1 + Cc1[nH]c2ccc(F)cc2c1-c1nc2c3cccnc3c3ncccc3c2[nH]1
- pIC50 (second compound 0.0316 µM): 5.82
- pIC50 (second compound 0.1 µM): 5.80
- pIC50 (second compound 0.316 µM): 5.79
- pIC50 (second compound 1 µM): 5.77
- pIC50 (second compound 3.16 µM): 5.80
- pIC50 (second compound 10 µM): 5.75
- viability, T/C [1]: 107%
- viability, T/C [2]: 96.5%
- viability, T/C [3]: 107%
- viability, T/C [4]: 79%
- viability, T/C [5]: 1.25%
- viability, T/C [6]: 0.26%
- viability, T/C [7]: 109%
- viability, T/C [8]: 103%
- viability, T/C [9]: 100%
- viability, T/C [10]: 81.9%
- viability, T/C [11]: 2.07%
- viability, T/C [12]: 0.2%
- viability, T/C [13]: 101%
- viability, T/C [14]: 100%
- viability, T/C [15]: 96.1%
- viability, T/C [16]: 80.5%
- viability, T/C [17]: 6.68%
- viability, T/C [18]: 0.19%
- viability, T/C [19]: 94.7%
- viability, T/C [20]: 92.4%
- viability, T/C [21]: 98.2%
- viability, T/C [22]: 84.8%
- viability, T/C [23]: 7.25%
- viability, T/C [24]: 0.23%
- viability, T/C [25]: 93.1%
- viability, T/C [26]: 93.7%
- viability, T/C [27]: 96.1%
- viability, T/C [28]: 80.8%
- viability, T/C [29]: 4.92%
- viability, T/C [30]: 0.25%
- viability, T/C [31]: 95.7%
- viability, T/C [32]: 94.2%
- viability, T/C [33]: 99.2%
- viability, T/C [34]: 93.6%
- viability, T/C [35]: 5.75%
- viability, T/C [36]: 0.31%

SMILES: COc1ncnc(C2CC2)c1-c1ncc2cnn(Cc3ccc(-c4nc(C(F)(F)F)cn4C(C)C)cc3)c2n1 + CN(C)c1ccc(Nc2c3ccc(NC(=O)CCN4CCCC4)cc3nc3cc(NC(=O)CCN4CCCC4)ccc23)cc1
- pIC50 (second compound 0.0316 µM): < 5.00
- pIC50 (second compound 0.1 µM): < 5.00
- pIC50 (second compound 0.316 µM): < 5.00
- pIC50 (second compound 1 µM): < 5.00
- pIC50 (second compound 3.16 µM): < 5.00
- pIC50 (second compound 10 µM): < 5.00
- viability, T/C [1]: 106%
- viability, T/C [2]: 99.8%
- viability, T/C [3]: 102%
- viability, T/C [4]: 101%
- viability, T/C [5]: 104%
- viability, T/C [6]: 104%
- viability, T/C [7]: 99.9%
- viability, T/C [8]: 103%
- viability, T/C [9]: 102%
- viability, T/C [10]: 101%
- viability, T/C [11]: 105%
- viability, T/C [12]: 109%
- viability, T/C [13]: 104%
- viability, T/C [14]: 104%
- viability, T/C [15]: 97.3%
- viability, T/C [16]: 90.8%
- viability, T/C [17]: 104%
- viability, T/C [18]: 99.2%
- viability, T/C [19]: 97.7%
- viability, T/C [20]: 88.5%
- viability, T/C [21]: 94.6%
- viability, T/C [22]: 92.7%
- viability, T/C [23]: 90.7%
- viability, T/C [24]: 87.6%
- viability, T/C [25]: 83.9%
- viability, T/C [26]: 77.7%
- viability, T/C [27]: 82.5%
- viability, T/C [28]: 74.2%
- viability, T/C [29]: 79.6%
- viability, T/C [30]: 67.3%
- viability, T/C [31]: 64.6%
- viability, T/C [32]: 63.1%
- viability, T/C [33]: 66.2%
- viability, T/C [34]: 61.6%
- viability, T/C [35]: 56.5%
- viability, T/C [36]: 52.2%

Source: PubChem BioAssay AID2060491 (Molecular Pharmacology Branch, DTP, NCI, 2025)
